Type in all cases: in vivo, rat
The subject of one assay is interstitial collagen. The assay is described as follows: Assay C: interstitial collagen volume fraction (Picrosirius Red image analysis). As to conditions: for Interstitial Collagen Volume Fraction: Table 9.14, 7-day protocol; for Collagen Volume Fraction (%), Mean: group mean; for ICVF (interstitial collagen volume fraction): eplerenone 100 mg/kg/day. As for the experimental part: The procedure of Assay B was expanded upon in a further study. […] Myocardial tissue from animals in each treatment group was examined after 7, 14, or 30 days of treatment. […] Lesions were preceded by the expression and progressive upregulation of proinflammatory molecules. […] Prior to surgery the animals were individually weighed and placed in one of the following groups: […] Potassium chloride supplementation was added to the saline solution in order to prevent the potential hypokalemia associated with aldosterone excess. […] Louis, Mo.) was inserted subcutaneously at the nape of the neck. Aldosterone was administered at a dose of […]. […] Animals were sacrificed from each group (n=8-13) after 7, 14, or 30 days of treatment. The equatorial regions of the heart were routinely processed into paraffin with an automated tissue processor (Hypercenter XP, Shandon/Lipshaw Inc., Pittsburgh, Pa.) and embedded into fresh paraffin apical side down (Shandon Embedding Center, Shandon/Lipshaw Inc.). […] Ten m sections were stained with the collagen specific stain, Picrosirius Red F3BA (Saturated Picric Acid (Sigma Chemical, St. […] Waterbury, Conn.) (6). Mounted tissues were hydrated with water. […] Slides were coverslipped with #1 cover glass using Permount Histological Mounting Media (Fisher Scientific). Two slides mounted with 5 m sections were cut for each animal. One slide was processed for H&E staining and one for Periodic Acid Schiff (PAS) staining. The H&E and PAS were used for pathological scoring of the hearts. Picrosirius Red F3BA stained slides were used to quantify interstitial collagen with a Videometric 150 Image Analysis System (Oncor Inc., Gaitherburg, Md.). […] Garden City, N.Y.) attached to a Nikon Optiphot microscope (Nikon Inc.). A Toshiba 3 CCD Color Video Camera (Model#[…] Corp. Japan) relayed the images in RGB format from the microscope to a 386 computer with a […] video board. The […] video board/[…] software application (Oncor Inc.) converted RGB images to HIS (Hue, Intensity, Saturation) format for display and analysis on a Sony Trinitron Color Video Monitor (Model#PVM-1342Q, Sony Corp, Tokyo, Japan) at a magnification of 305×. […] The […] application then measured only pixels which fell into thresholding limits. The system was calibrated with a micrometer scale (EM Sciences, FT. Washington, Pa. 19034), which allowed data to be expressed in mm^2 or m^2.

For assay [1], the system named is angiotensin II infused rats. Briefly: Assay A angiotensin II infusion model: systolic blood pressure by tail-cuff. To be noted: Wistar rats, 1% NaCl, angiotensin II 25 ng/min sc; eplerenone 100 mpk; 4 weeks. As for the experimental part: Assay A: In Vivo Angiotensin II Infusion Model
Male Wistar rats (n—50, 10/group; BW=200 g)
2. Angiotensin 11 (25 ng/min, sc via aizet minipump)
SBP measured by tail-cuff every week

The test system of assay [2] is Monocyte Chemoattractant Protein-1 (MCP-1). The assay is described as follows: Assay C: MCP-1 relative mRNA expression in heart (TaqMan). To be noted: for MCP1, Mean / MCP1: mRNA; for MCP1, Mean: group mean; for MCP1: individual rats; for MCP-1 mRNA expression in myocardium: time course 7, 14, 30 days, eplerenone 100 mg/kg/day. As for the experimental part:
The procedure of Assay B was expanded upon in a further study. […] Myocardial tissue from animals in each treatment group was examined after 7, 14, or 30 days of treatment.
Potassium chloride supplementation was added to the saline solution in order to prevent the potential hypokalemia associated with aldosterone excess.
At the time of the surgery, an Alzet 2002 osmotic minipump (Alza Corp., Palo Alto, Calif.) containing either vehicle (9% ethanol/87% propylene glycol/4% dH2O) or 1.0 mg/mL d-aldosterone (Sigma Chemical, St. Louis, Mo.) was inserted subcutaneously at the nape of the neck. Aldosterone was administered at a dose of 0.75 g/hour. […] Animals were sacrificed from each group (n=8-13) after 7, 14, or 30 days of treatment.
The fluorogenic 5′-nuclease assay (TaqMan PCR) using Applied Biosystems' 7700 Sequence Detection System (Applied Biosystems, Foster City, Calif.) allowed for real time detection/quantitation of a specific gene by monitoring the increase in fluorescence of a gene-specific, dye-labeled oligonucleotide probe. Probes for target and reference genes were labeled at the 5′-end with a 6-carboxyfluorescein (6FAM) reporter dye and at the 3′-end with a 6-carboxy-N,N,N′,N′-tetramethylrhodamine (TAMRA) quencher dye. When the probe was annealed to the target gene, fluorescence of 6FAM was prevented by the close proximity of TAMRA. The exonuclease activity of Taq polymerase released the dyes from the oligonucleotide probe by displacing the probe from the target sequence resulting in fluorescence excitation in direct proportion to the amount of target message present. Data analysis was performed using the Sequence Detection System software from Applied Biosystems.
All primers and probes were designed using Primer Express software supplied with the 7700 Sequence Detection System and synthesized by Applied Biosystems. Standard curves using 5-fold dilutions of total RNA (from 200 ng to 320 pg) were performed to determine the efficiency of each primer/probe set in the TaqMan reaction prior to the analysis of the experimental samples. Primer/probe sets were designed from known sequences of rat genes to be analyzed. All target gene values were normalized to a reference gene, constitutively expressed cyclophilin. Primer/probe set sequences can be found in Table 8.
RNA was extracted from frozen (−80° C.) rat heart tissue using the Totally RNA Isolation Kit (Ambion, Inc., Austin, Tex.). Tissue was crushed using a stainless steel mortar and pestle, which had been chilled to −80° C. and transferred to a dounce homogenizer (Kontes, Vineland, N.J.) containing 3-10 mL cold denaturation buffer. Tissue was homogenized and transferred to a sterile, 15 mL polypropylene centrifuge tube. An equal volume of phenol:chloroform:isoamyl alcohol (25:24:1) was added, samples were shaken vigorously for 1 min, and incubated on ice for at least 15 min. Samples were centrifuged for 30 min at 10,000 g. The aqueous phase was removed, 1/10 volume of a sodium acetate solution (3.0 M NaOAc pH 4.5) was added, samples were shaken or inverted for 10 seconds, and acid-phenol (premixed with isoamyl alcohol):chloroform (5:1, Ambion, Inc.) was added at an volume equivalent to the starting sample volume. Samples were shaken vigorously for 1 min, followed by a 15-min incubation on ice, and centrifuged for 30 min at 10,000 g. The aqueous phase removed and placed in a clean polypropylene tube. An equal volume of isopropanol (Sigma, St. Louis, Mo.) was added and the samples were mixed and incubated overnight at −20° C. The samples were centrifuged for 30 min at 10,000 g, the supernatant was removed and the RNA pellet was resuspended in DNAse/RNAse-free water. Samples were frozen at −80° C. for at least 2 hours, thawed on wet ice, and diluted for quantitation.
For orientation: Quantitative PCR measures a nucleic acid by following its amplification.

Assay [3] relates to angiotensin II infused rats. Briefly: Assay A angiotensin II infusion model: heart histology (coronary vascular inflammation, myocardial injury). To be noted: for Vascular inflammation and myocardial injury in the heart: angiotensin II infused rats, aldosterone given to adrenalectomized rats.

Values joined by “and” are separate entries in the source; they are usually repeats but may differ in a detail not shown here. Equal values may be shown once. “Also recorded” adds a separate entry of the source.

Turning to `C[C@]12CCC(=O)C=C1CC[C@@H]1[C@@H]2[C@@H](O)C[C@]2(C=O)[C@@H](C(=O)CO)CC[C@@H]12` [aldosterone], the “Interstitial Collagen Volume Fraction” value was 5.6% in the assay on interstitial collagen (group Mean); 3.2% and 6.5% (2×) and 6.1% and 6.9% and 4.4% and 3.1% in the assay with interstitial collagen (individual rats, listed as Aldosterone + salt). The “Collagen Volume Fraction (%), Mean” value in the assay with interstitial collagen (14 days of treatment) was 5.1%; with interstitial collagen (30 days of treatment) it was 7.9%. The entries for the “ICVF (interstitial collagen volume fraction)” value in the assay with interstitial collagen (mean ± SEM after 7 days of treatment), with interstitial collagen (mean ± SEM after 14 days of treatment) and in the assay on interstitial collagen (mean ± SEM after 30 days of treatment) were 5.6 ± 0.6%, 5.1 ± 0.5% and 7.9 ± 1.0%, respectively. In assay [1], the Systolic Blood Pressure result is on record as “increased blood pressure”. Further, the results for the “MCP1, Mean” value in assay [2] (14 days of treatment) and in assay [2] (30 days of treatment) were 2.76 AU and 4.54 AU, respectively. Also, the MCP1 in assay [2] (7 days of treatment, listed as Aldosterone + salt) is given as 2.40 AU; in assay [2] (14 days of treatment, listed as Aldosterone + salt), 2.50 AU; in assay [2] (30 days of treatment, listed as Aldosterone + salt), 2.30 AU. Besides, the “MCP-1 mRNA expression in myocardium” value in assay [2] was “significantly increased”. The “Vascular inflammation and myocardial injury in the heart” value in assay [3] was “restored the severe coronary and myocardial inflammation and injury”.
Turning to `COC(=O)[C@@H]1CC2=CC(=O)CC[C@]2(C)[C@@]23O[C@@H]2C[C@@]2(C)[C@@H](CC[C@@]24CCC(=O)O4)[C@H]13` [eplerenone, Pregn-4-ene-7,21-dicarboxylic acid, 9,11-epoxy-17-hydroxy-3-oxo-, γ-lactone, methyl ester, (7α, 11α, 17β) -], the figures for the “Collagen Volume Fraction (%), Mean” value with interstitial collagen (14 days of treatment) and with interstitial collagen (30 days of treatment) were 4.5% and 6.2%, respectively. For the same molecule, in assay [1], the Systolic Blood Pressure entry is listed as “Neither eplerenone nor adrenalectomy reduced blood pressure”. Besides, the “MCP1, Mean” value in assay [2] (7 days of treatment) was 1.56 AU; in assay [2] (30 days of treatment), 2.29 AU. The MCP1 is 1.60 AU and 0.85 AU and 0.83 AU and 0.67 AU in assay [2] (7 days of treatment, listed as Eplerenone + aldosterone + salt); 1.60 AU and 1.20 AU in assay [2] (14 days of treatment, listed as Eplerenone + aldosterone + salt); 1.70 AU and 2.10 AU in assay [2] (30 days of treatment, listed as Eplerenone + aldosterone + salt). Moreover, the “MCP-1 mRNA expression in myocardium” value in assay [2] is on record as “significantly reduced; also recorded: inhibition of early time-course expression of myocardial MCP-1”. Moreover, the “Vascular inflammation and myocardial injury in the heart” value in assay [3] is reported as “prevention by eplerenone (epoxymexrenone) of vascular inflammation in the heart”. For the same molecule, in assay [3] (out of ten animals per group, angiotensin II/salt, 4 weeks, eplerenone 100 mpk), the “Animals with vascular inflammatory lesions in the coronary arteries” value is listed as “only one of the ten”.

(Values after patent publication US20030162759A1, “Aldosterone blocker therapy to prevent or treat inflammation-related disorders” (priority 2000, published 2003).)
